Records with an inconclusive call do not appear. Active and inactive are the calls of the source.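 The calls were made as follows: active = drop in red signal of normal-ribosome bacteria at least twice that in human-like-ribosome bacteria, growth inhibited under 30%; inactive = the rest, inconclusive results apart.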
What was measured:
[1] = tested on: E. coli WT-RFP / h24-humanized GFP mixed culture, 24 h; assay: E. coli strain growth, wild-type against h24 humanized mutant – h24 mutant GFP vs wild-type RFP, cherry-pick, dose response (AID 977629)
[2] = as above; conditions: E. coli WT-RFP / h24-humanized GFP mixed culture, 24 h; at 50 µM (top of the series)
[3] = measured here: total growth OD600
[4] = measured here: h24 humanized mutant GFP signal

SMILES | AC50 [1] | AC50 [1, 3] [µM] | activity change, negative = inhibition [2] | AC50 [1, 4] [µM]
COC(=O)c1c(NC(=O)CCC(=O)O)sc(Cc2ccccc2)c1C | > 100 µM (inactive) | 30 | – | –
Cc1noc(C)c1NC(=O)Nc1ccc2c(c1)C(=O)N([C@H](C)CO)C[C@@H](C)[C@@H](CN(C)C(=O)Nc1ccc3c(c1)OCO3)OCCCC[C@@H](C)O2 | – | – | 86.8 (inactive) | –
CCN(CC)CCn1c2ccccc2c2nc3ccc([N+](=O)[O-])cc3cc21 | – | 7.41 | 21.8 (inactive) | 6.47
C[C@@H]1CCCCO[C@H](CN(C)C(=O)CCCN(C)C)[C@H](C)CN([C@@H](C)CO)C(=O)c2cc(NC(=O)Nc3cccc4ccccc34)ccc2O1 | – | > 100 | 101 (inactive) | –
Cc1ccc(C)c(NC(=O)CSc2nc3nc(-c4cccs4)cc(C(F)(F)F)c3c(=O)[nH]2)c1 | – | 20.1 | 52.6 (inactive) | 31.6
COc1ccc(-n2cc(-c3ccccc3)c3c(N4CCOCC4)ncnc32)cc1 | – | 27.8 | 12.7 (inactive) | –
COc1ccc2[nH]c3c(=O)n(CCCCC(=O)NCCC(C)C)c(=S)[nH]c3c2c1 | – | – | 64.3 (inactive) | –
O=C(O)c1cc([N+](=O)[O-])ccc1NCc1ccccc1 | – | 5.79 | -0.454 (inactive) | > 100
COc1ccc(Cn2c(-c3ccc(Cl)cc3)c[n+]3ccccc23)cc1 | – | – | 21 (inactive) | –
